Source: article PMC6934184, “Selective DNA-PKcs inhibition extends the therapeutic index of localized radiotherapy and chemotherapy” (The Journal of Clinical Investigation, 2019)

Target: T1, MAPK15 (ERK7) (Homo sapiens, UniProt Q8TD08)
T1 construct: purchased Thermo Fisher Scientific (Life Technologies) SelectScreen
Experiment: SelectScreen LanthaScreen
Type: binding
Details: read-out: % displacement
In short: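 SelectScreen broad panel; activity (Z'LYTE, Adapta) plus binding formats. ATP: Km app for CSF1R Z'LYTE; 10 for CAMK1 Adapta. Readout = % per kinase.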

T1 sequence (Q8TD08 whole entry): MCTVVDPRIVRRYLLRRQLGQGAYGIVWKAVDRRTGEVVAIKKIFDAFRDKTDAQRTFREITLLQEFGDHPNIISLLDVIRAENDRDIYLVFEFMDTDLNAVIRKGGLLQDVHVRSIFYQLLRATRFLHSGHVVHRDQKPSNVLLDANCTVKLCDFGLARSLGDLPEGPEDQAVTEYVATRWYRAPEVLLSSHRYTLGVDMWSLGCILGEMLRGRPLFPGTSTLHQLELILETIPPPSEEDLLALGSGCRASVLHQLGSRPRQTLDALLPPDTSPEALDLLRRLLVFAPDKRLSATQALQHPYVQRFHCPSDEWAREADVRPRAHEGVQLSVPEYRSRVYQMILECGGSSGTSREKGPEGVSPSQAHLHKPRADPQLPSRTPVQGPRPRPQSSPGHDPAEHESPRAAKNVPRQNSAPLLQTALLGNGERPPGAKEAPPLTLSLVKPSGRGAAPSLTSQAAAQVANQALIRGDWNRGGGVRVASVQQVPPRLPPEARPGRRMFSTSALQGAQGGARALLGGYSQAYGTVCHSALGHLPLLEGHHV

Work on `CN(C(=O)CN1CCOCC1)c1ccc2sc3c(-c4cccc5c(=O)cc(N6CC7CCC(C6)O7)oc45)cccc3c2c1` [NU5455] yielded an inhibition at 1 µM of 3.6%.
